Reference: patent publication US20250144187A1, “COMBINATION OF HYDROLASES AND ANTI-MICROORGANISM DRUGS AND USES THEREOF” (CENTRE FOR EYE AND VISION RESEARCH LIMITED, priority 2023, published 2025)

How the values were obtained:
[1] = test system: MRSA; experiment: HADA-based synthesis of nascent cell wall; design: species or system Staphylococcus aureus; conditions: cefdinir alone or combination with lysozyme, 2 hours
Protocol: 8) Synthesis and digestion of cell wait. According to the reported method [Kuru E et al., ACS Chem Biol 14, 2745-2756 (2019)], over-night cultured MRSA was inoculated into LB medium and cultured at 37° C. with shaking at 250 rpm until when its OD600 reached 0.6. Then, these mid-log-phase MRSA was treated with cefdinir (0.5 μg/ml), lysozyme (0.5 mg/ml) alone or their combination. Those treated with mezlocillin (1.0 μg/ml) and without any treatment served as antibiotic-control and untreated group, respectively. Meanwhile, MRSA suspension in control group was further divided into two groups. i.e., control group and no drug group, Next, 10 μM HCC-Amino-D-alanine (HADA) was added into all samples except those in no drug group, in which HADA was replaced by PBS. After 2- or 4-hour incubation, all bacteria were collected by centrifugation at 3220 g for 10 minutes and then washed by cold PBS for 3 times to remove redundant HADA.

[2] = test system: MRSA; experiment: Time-killing curves, cefdinir/lysozyme; assay type: cell-based, Staphylococcus aureus; conditions: 0.5 mg/ml lysozyme + 0.5 μg/ml cefdinir, after 16 hours; reduced from the level of 10^10
Protocol: 3) Time-killing curves. According to standard method [Thappeta K R V et al., ACS Infect Dis 6, 1228-1237 (2020)], over-night cultured MRSA was diluted and aliquoted into new sterile 50 ml tubes at 1:1000 ratio. Then, the bacterial suspension was cultured in LB medium containing 0.5 or 2.0 μg/ml cefdinir, 0.5 mg/ml lysozyme or their combination at 37° C. with shaking at 250 rpm. Bacterial suspension without any drugs served as control group. To measure their kinetic time-killing curves, twenty micro liters of each culture was extracted at time intervals of 0, 2, 4, 6, 9 and 16 h for measurement of the OD600 and colony-forming units. Ten micro liters of each dilution was spotted on the LB-agar plates and incubated at 37° C. for 24 hours prior to enumeration. All assays were performed in triplicate.

[3] = test system: MRSA; experiment: ATP, NADH and pyruvate levels, cefdinir/lysozyme; assay type: cell-based, Staphylococcus aureus; conditions: 1 hour
Protocol: 12) ATP, NADH and pyruvate levels. According to the described method [Liu Y et al., Adv Sci 7, 1902227 (2020)], mid-log-phase MRSA with an OD600 of 0.4 to 0.6 was treated with lysozyme, cefdinir or their combination at different concentrations. Those without any treatment served as control group. After 1 hour incubation at 37° C. bacteria with similar load (according to OD600, 1 ml bacteria were collected if the OD600 was 1) were collected, washed by cold PBS for 3 times. […] Here, 20 μl of each supernatant were added each well of white 96-well plate, in which each well had been pre-reactivated by 100 μl of ATP test solution (Beyotime. Co. Ltd, China), followed by luminometer measurement. To analyze the NAD^+/NADH ratio [Xue C et al., Front Pharmacol 12, 6000296 (2021)], half of lysis supernatants were frozen at −20° C. immediately and the rest half were firstly heated at 60° C. for 30 minutes in PCR machine to decompose NAD^+ if had, Next, these heated supernatants were further centrifuged at 18,000 g at 4° C. for 20 minutes to collect their supernatants. […] After 30 minutes incubation in the prevention of light, orange formazan was observed and then the absorbance at 450 nm was recorded. […] By recording the absorbance at 520 nm, the pyruvate level in each sample was figured out according to the standard formula. […]

[4] = test system: ARPE-19 cells; assay type: cell-based; conditions: human, 24 h
Protocol: 14) Toxicities analysis on lysozyme and cefdinir. Toxicities analysis of lysozyme and cefdinir were performed on ARPE-19 and 293T cells [Guo H et al., ACS Chem Biol 17, 2003-2009 (2022)]. Drugs at different concentrations were added into the plates, in which cells had 80% confluency. Those without any drug's treatment served as control group. Ater 24 hours culture at 37° C., survival cells were counted by using CCK-8 kit, 100% survival ratio (no toxicity) was defined as those had same number of survival cells in control group.

[5] = test system: MRSA; experiment: Mutation frequency and prevention concentration analysis, tedizolid phosphate/lysozyme
[6] = test system: ocular bacterial communities in tears; experiment: Microbiome assay (16S rRNA) in ocular infection model; assay type: in vivo, C57BL/6 mice; conditions: combination therapy; infected untreated ~3%, healthy 0.052%
[7] = test system: MRSA in ARPE-19 cells; experiment: Cell infection model, tedizolid phosphate/lysozyme
[8] = test system: MRSA; experiment: Time-killing curves, tedizolid phosphate/lysozyme; assay type: cell-based, Staphylococcus aureus; conditions: tedizolid phosphate + 0.5 mg/ml lysozyme, after 22 hours; dropping from the level of 10^12
Protocol: 3) Time-killing curves. According to standard method [Sun. H et al., Nat. Commun. 11, 5263 (2020); Thappeta, K. R. V., Vikke. Y. S., Yong. A. M. H., Chan-Park. M. B. Kline, K. A. Combined efficacy of an antimicrobial cationic peptide polymer with conventional antibiotics to combat multidrug-resistant pathogens. ACS Infect. Dis. 6, 1229-1237 (2020)], over-night cultured MRSA was diluted and aliquoted into new sterile 50 ml tubes at 1:1000 ratio. Then, the bacterial suspension was co-cultured with 0.25 or 0.5 μg/ml tedizolid phosphate, 0.5 mg/ml lysozyme or their combination at 37° C. with shaking at 50 rpm. Similar bacterial suspension without any additions served as control group. To measure their real bacterial loads to draw their kinetic time-killing curves, 20 μl of each culture was extracted at time intervals of 0, 1, 3, 6, 9, 12 and 22 hours, and then 10 μl of each sample (10-fold serial dilution) was applied onto LB-agar plate and incubated at 37° C. for 24 hours. All assays were performed in triplicate.

Compound | reduction in HADA signal intensity from nascent cell wall [1] [%] | bacterial load [2] | increasing ATP level ([3]; cefdinir (0.5 μg/ml) + lysozyme (0.5 mg/ml)) [fold] | increase in the ratio of NAD+/NADH ([3]; cefdinir treatment) [fold] | safe concentration without any effect on cell survival ratios [4] [µg/mL] | mutation frequencies ([5]; combination with lysozyme) | prevention concentrations of tedizolid phosphate ([5]; combination with lysozyme) [µg/mL] | mutation frequencies ([5]; without combination therapy) | prevention concentrations of tedizolid phosphate ([5]; without lysozyme) [µg/mL] | proportion of Staphylococcus in tear bacterial communities [6] [%] | death of infected ARPE-19 cells ([7]; 1.0 μg/ml tedizolid phosphate + 0.5 mg/ml lysozyme, MOI 10) | bacterial load in ARPE-19 cells ([7]; ≥1.0 μg/ml tedizolid phosphate in the presence of 0.5 mg/ml lysozyme, reduced from 10^7) | bacterial load per ml culture [8]
C=CC1=C(C(=O)O)N2C(=O)[C@@H](NC(=O)/C(=N\O)c3csc(N)n3)[C@H]2SC1 [cefdinir, Cefdinir] | ~40 | 10^7 CFU/ml | 1.5 | 1.3 | < 64 |  |  |  |  |  |  |  | 
Cn1nnc(-c2ccc(-c3ccc(N4C[C@H](COP(=O)(O)O)OC4=O)cc3F)cn2)n1 [tedizolid phosphate, Tedizolid Phosphate] |  |  |  |  |  | 2×10^−9 | ≤ 1 | ≥ 5×10^−7 | > 50 | ~0.078 | cell death was prevented | 10^4 CFU/ml | 10^6 colony forming units (CFUs)
